Assay results taken from US12448372B2, “Class of triaromatic compounds targeting bifunctional phosphorylation site of STAT3 and applications thereof” (SHANGHAI YUYAO BIOTECH LTD., priority 2019, dated 2025).

Assays:
MKN45 = test: Cell proliferation by MTS method, MKN45; type: cell-based; details: Homo sapiens, MKN-45; Table 1, MKN45; read-out: Tumour cell proliferative activity/IC50(nM) gastric Cancer MKN45
Text: (§1) (2) Detection of Cell Proliferation by MTS Method
(§2) The MTS assay is a method for indirectly determining the number of living cells via colourimetric method. MTS is a newly synthesised tetrazole compound that reflects cell viability, which can be reduced by succinate dehydrogenase in the mitochondria of living cells to an orange-coloured formazan with an absorbance of the reduced product measured at 490 nm being in proportion to the number of living cells, thus reflecting the cell viability. This assay can be used to evaluate the effect of the compound on the proliferation of pancreatic cancer cells, thereby determining the inhibitory effect of the compound on the proliferation of pancreatic cancer cells and to calculate the IC^50. Each cells were inoculated uniformly into a 96-well plate at a density of 1-20×10^3 cells/well, 100 μL per well, and placed in a constant temperature incubator until the cells adhered to the wall. The control group was added with the corresponding medium and the experimental groups were given different concentrations of the compound prepared by the examples of the present invention, and the cells were taken out 24-96 h after administration for observing the cell state under a microscope. Under light-proof conditions, MTS was added and well mixed, the mixture was placed in a constant temperature incubator at 37° C., and the light absorption value were measured using an enzyme marker at 490 nm and the experiment was repeated for three times, IC50 was calculated with GraphPad5 Prism software.

Capan-2 = test: Cell proliferation by MTS method, Capan-2; type: cell-based; details: Homo sapiens; Table 1, Capan-2; read-out: Tumour cell proliferative activity/IC50(nM) Pancreatic Cancer Capan-2
Text: as §1, §2

HCC827 = test: Cell proliferation by MTS method, HCC827; type: cell-based; details: Homo sapiens; Table 1, HCC827; read-out: Tumour cell proliferative activity/IC50(nM) Lung Cancer HCC827
Text: as §1, §2

Huh7 = test: Cell proliferation by MTS method, Huh7; type: cell-based; details: Homo sapiens, Huh-7; Table 1, Huh7; read-out: Tumour cell proliferative activity/IC50(nM) Liver Cancer Huh7
Text: as §1, §2

STAT3 protein = STAT3 protein (Homo sapiens, UniProt P40763); test: Binding activity to STAT3 protein by microscale thermophoresis (MST); details: purified STAT3 recombinant protein
Text: (1) Determination of Binding Activities of Compounds to STAT3 Protein by Microscale Thermophoresis (MST) Method
The microscale thermophoresis (MST) technique is a simple, rapid, and accurate method for quantifying biomolecular interactions. It can measure the movement of molecules in a microscopic temperature gradient field, as well as detect changes of molecular hydration shell, charge and size. When the Nanotemper microscale thermophoresis instrument locally heated by a infrared laser, molecules will move in a directional manner, then the molecular distribution ratio in the temperature gradient field are analyzed by a fluorescence to detect whether a small molecule compound binds to a target protein. The experimental operation is as follows: firstly, compounds to be tested are diluted in a gradient using MST test buffer, total 16 concentrations being configured; subsequently, the purified STAT3 recombinant protein is labeled using the HIS tag labeling kit, and the final concentration of the labeled protein is 100-200 nM; the labeled STAT3 proteins are well mixed with the diluted compounds and incubated and protected from light for 30 minutes; finally the samples were loaded by capillary tube and detected on the instrument. The binding constants (K^D) of small molecules to STAT3 protein were analyzed by Mo. analysis software.

STAT3 protein, sequence (P40763 whole entry): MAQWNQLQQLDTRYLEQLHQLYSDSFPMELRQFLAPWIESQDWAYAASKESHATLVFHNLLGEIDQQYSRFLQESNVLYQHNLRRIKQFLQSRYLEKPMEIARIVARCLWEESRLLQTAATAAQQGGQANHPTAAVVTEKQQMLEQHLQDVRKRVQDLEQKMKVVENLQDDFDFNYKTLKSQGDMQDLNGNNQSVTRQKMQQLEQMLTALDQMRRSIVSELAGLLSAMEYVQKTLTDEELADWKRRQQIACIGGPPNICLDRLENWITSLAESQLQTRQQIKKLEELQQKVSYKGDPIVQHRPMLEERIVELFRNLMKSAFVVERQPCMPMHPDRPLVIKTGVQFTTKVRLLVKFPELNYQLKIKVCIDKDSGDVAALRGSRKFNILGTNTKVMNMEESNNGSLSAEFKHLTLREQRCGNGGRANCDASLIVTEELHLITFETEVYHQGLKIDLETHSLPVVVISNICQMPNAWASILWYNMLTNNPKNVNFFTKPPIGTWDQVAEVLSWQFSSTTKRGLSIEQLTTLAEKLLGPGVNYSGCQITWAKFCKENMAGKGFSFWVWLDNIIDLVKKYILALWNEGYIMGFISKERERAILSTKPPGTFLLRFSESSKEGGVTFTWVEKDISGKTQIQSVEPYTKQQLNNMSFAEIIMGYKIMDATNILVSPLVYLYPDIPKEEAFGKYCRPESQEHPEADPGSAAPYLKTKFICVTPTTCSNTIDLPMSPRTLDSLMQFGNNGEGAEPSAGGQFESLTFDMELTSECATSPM

Compound | IC50 (MKN45) | IC50 (HCC827) | IC50 (Huh7) | Kd (STAT3 protein) | IC50 (Capan-2)
Cn1c(C(=O)N2CCN(Cc3ccc(F)cc3)CC2)cc2ccc(Oc3cnc(-c4nc(-c5ccc(C(F)(F)F)cc5)no4)cn3)cc21 [Example 26, (4-(4-fluorobenzyl)piperazin-1-yl)(1-methyl-6-((5-(3-(4-(trifluoromethyl)phenyl)-1,2,4-oxadiazol-5-yl)pyrazin-2-yl)oxy)-1H-indol-2-yl)methanone] | < 1000 nM | < 1000 nM | < 1000 nM | < 1000 nM | < 1000 nM
Cn1c(C(=O)N2CCN(Cc3ccc(Cl)cc3)CC2)cc2ccc(Oc3cnc(-c4nc(-c5ccc(C(F)(F)F)cc5)no4)cn3)cc21 [Example 27, (4-(4-chlorobenzyl)piperazin-1-yl)(1-methyl-6-((5-(3-(4-(trifluoromethyl)phenyl)-1,2,4-oxadiazol-5-yl)pyrazin-2-yl)oxy)-1H-indol-2-yl)methanone] | < 100 nM | < 100 nM | < 100 nM | < 100 nM | < 100 nM
Cn1c(C(=O)N2CCN(Cc3ccc(C(F)(F)F)cc3)CC2)cc2ccc(Oc3cnc(-c4nc(-c5ccc(C(F)(F)F)cc5)no4)cn3)cc21 [Example 30, (1-methyl-6-((5-(3-(4-(trifluoromethyl)phenyl)-1,2,4-oxadiazol-5-yl)pyrazin-2-yl)oxy)-1H-indol-2-yl)(4-(4-(trifluoromethyl)benzyl)piperazin-1-yl)methanone] | < 1000 nM | < 1000 nM | < 1000 nM | < 1000 nM | < 1000 nM
Cn1c(C(=O)N2CCN(Cc3ccccc3OCC(F)(F)F)CC2)cc2ccc(Oc3cnc(-c4nc(-c5ccc(C(F)(F)F)cc5)no4)cn3)cc21 [Example 33, (1-methyl-6-((5-(3-(4-(trifluoromethyl)phenyl)-1,2,4-oxadiazol-5-yl)pyrazin-2-yl)oxy)-1H-indol-2-yl)(4-(2-(2,2,2-trifluoroethoxy)benzyl)piperazin-1-yl)methanone] | < 1000 nM | < 1000 nM | < 1000 nM | < 100 nM | < 1000 nM

Second part, led by results:

IC50 (MKN45) | IC50 (HCC827) | IC50 (Huh7) | Kd (STAT3 protein) | Compound | IC50 (Capan-2)
< 100 nM | < 100 nM | < 100 nM | < 100 nM | Cn1c(C(=O)N2CCN(Cc3ccc(Br)cc3)CC2)cc2ccc(Oc3cnc(-c4nc(-c5ccc(C(F)(F)F)cc5)no4)cn3)cc21 [Example 28, (4-(4-bromobenzyl)piperazin-1-yl)(1-methyl-6-((5-(3-(4-(trifluoromethyl)phenyl)-1,2,4-oxadiazol-5-yl)pyrazin-2-yl)oxy)-1H-indol-2-yl)methanone] | < 100 nM
< 1000 nM | < 1000 nM | < 1000 nM | < 1000 nM | Cn1c(C(=O)N2CCN(Cc3cccc(C(F)(F)F)c3)CC2)cc2ccc(Oc3cnc(-c4nc(-c5ccc(C(F)(F)F)cc5)no4)cn3)cc21 [Example 29, (1-methyl-6-((5-(3-(4-(trifluoromethyl)phenyl)-1,2,4-oxadiazol-5-yl)pyrazin-2-yl)oxy)-1H-indol-2-yl)(4-(3-(trifluoromethyl)benzyl)piperazin-1-yl)methanone] | < 1000 nM
< 100 nM | < 100 nM | < 100 nM | < 100 nM | COc1ccc(CN2CCN(C(=O)c3cc4ccc(Oc5cnc(-c6nc(-c7ccc(C(F)(F)F)cc7)no6)cn5)cc4n3C)CC2)cc1 [Example 31, (4-(4-methoxybenzyl)piperazin-1-yl)(1-methyl-6-((5-(3-(4-(trifluoromethyl)phenyl)-1,2,4-oxadiazol-5-yl)pyrazin-2-yl)oxy)-1H-indol-2-yl)methanone] | < 100 nM
< 100 nM | < 100 nM | < 100 nM | < 100 nM | Cn1c(C(=O)N2CCN(Cc3cccc(OCC(F)(F)F)c3)CC2)cc2ccc(Oc3cnc(-c4nc(-c5ccc(C(F)(F)F)cc5)no4)cn3)cc21 [Example 32, (1-methyl-6-((5-(3-(4-(trifluoromethyl)phenyl)-1,2,4-oxadiazol-5-yl)pyrazin-2-yl)oxy)-1H-indol-2-yl)(4-(3-(2,2,2-trifluoroethoxy)benzyl)piperazin-1-yl)methanone] | < 100 nM
